# Measurements reported in patent publication US4211764A, “Gastric secretion stimulation with 2-amino-5-(2-aminoethyl)-1,3,4-thiadiozole” (priority 1978, dated 1980).
# Like-named read-outs stand apart in the source and are kept apart here.
# Key:
# Respiration = experiment: Effects on depth and rate of respiration; type: in vivo, rabbits and cats
# Source text: E. Effects on Depth and Rate of
# Respiration (rabbits and cats)
# H2 -receptors = H2 -receptors (Rattus norvegicus, UniProt P25102); conditions: uterus horn
# Description: Contractions of an isolated horn of uterus of a rat due to the effect of acetylcholine in a concentration of 1.10^-6 M were recorded on a paper tape.
# total acidity = experiment: Clinical reproducibility of secretory response (total acidity); type: in vivo, human
# Source text: (§1) Special attention was paid to side effects and the reproductibility of the secretory response after repeated administrations of the drug.
# Reproducibility of Secretory Response to Introduction
# of Thidazine and Histamine with Reference to Total
# Acidity Values (each group of patients includes 10 persons)
# ^(x) Percentage of difference is the relationship of the difference
# between the total acidity values registered in the first and second tests
# of a patient to the greater of these values.
# [1] = Acute toxicity, guinea pigs; conditions: guinea pig, in vivo, male guinea pigs
# Source text: (§2) The results of the tests are generalized in Table 1.
# arterial pressure [2] = experiment: Arterial pressure in anesthetized cats
# Description: These experiments were performed on 11 cats weighing 2.5 to 4.0 kg and anesthetized with urethane-chlorazol mixture containing 60 mg/kg of chlorazol and 600 mg/kg of urethane. The arterial pressure was measured in the common carotid artery with the aid of a mercury pressure gauge.
# arterial pressure [3] = experiment: Arterial pressure in rabbits; conditions: intravenous, thidazine 0.1 mg/kg, equimolar doses of histamine and histalog
# Description: In a series of experiments of 18 rabbits weighing 2.5 to 3.5 kg, each having the common carotid artery in a cutaneous flap, the preparations were injected intravenously.
# H1 - and H2 -receptors = experiment: Comparison of effects upon H1 - and H2 -receptors of different objects
# Description: Changes in the heart rate were measured, dose-response curves were plotted, and pD2 values were calculated.
# H1 -receptors = molecular target: T1, H1 -receptors (Cavia porcellus, UniProt P31389); experiment: Contraction of isolated ileum; conditions: guinea pig ileum; read-out: pD2 value in relation to H1 -receptors (converted)
# T1 construct: from tissue; host or cells: isolated guinea pig ileum
# male rabbits = conditions: rabbit, in vivo
# Description: | D. Allergic Action | (Arthus-Sakharov Phenomenon) | Daily injections to male rabbits | weighing 3.0 kg, during 6 to 7 days: | test group, hypodermic injections of | 0.1 ml of 1% solution | control group, injections of 0.1 ml | of normal horse serum
# Bulbar Conjunctiva = tested on: Bulbar Conjunctiva; parameters: species or system guinea pigs, rabbits; conditions: in vivo
# Source text: C. Irritant Action of 1-5% Solutions On
# intramuscular injection
# Male guinea pigs = experiment: Chronic toxicity, daily intravenous injections in guinea pigs; type: in vivo
# Source text: Male guinea pigs weighing 200-250 g
# 1. Daily intravenous injections of thidazine
# gastric juice = experiment: Acute Shay test (pylorus ligation); type: in vivo, rat; conditions: rats, 8 mg/kg intraperitoneally
# Description: Twenty acute Shay tests were performed on male rats weighing 250 to 300 g. The pylorus of each of the animals was ligated 2 hours before the slaughter. The pH and volume of the gastric juice were determined. […] In the control group, pH of the gastric juice was 2.2, and the average HCl output was 0.12 mEq per animal. In the experimental animals, pH of the gastric juice was 1.6, and the HCl output was 0.41 mEq.
# H2 -ceptors = H2 -ceptors (Canis lupus familiaris, UniProt P17124); experiment: Gastric secretion in dogs with gastric fistula, intramuscular injection
# Description: Chronic experiments were performed on male dogs weighing 20 to 25 kg and having a gastric fistula; prior to experiments, the animals were starved for 18 hours.
# The gastric juice was analyzed for titratable acidity and proteolytic activity. The hydrochloric acid output was calculated in milliequivalents (mEq) and that of pepsin in milligrams.
# gastric secretion = type: in vivo, human
# Source text: as §1
# The clinical investigation also helped to determine effective doses of the proposed preparation for submaximum and maximum tests and different forms of administration.
# [4] = tested on: gastric secretion of patients; experiment: Clinical comparison of thidazine with simple histamine test; type: in vivo, human; conditions: 20 patients; thidazine 1.5 mg/kg parenteral, histamine 0.01 mg/kg; >0.05
# Source text: as §1
# male dogs = experiment: Chronic toxicity, dogs per os; type: in vivo; conditions: for Bilirubin content / Glutamic-alanine transaminase content: 200 mg per os daily, Test
# Description: Three male dogs weighing 22 to 25 kg
# 1. Administration per os, 200 mg
# (in gelatin capsules), admini-
# stration performed once a day
# during 10 days, one animal being
# Acute toxicity, rats = conditions: rat, in vivo, ip; male rats, 200-250 g, i/p
# Source text: as §2
# [5] = 0.1-0.2 mg/kg i/m, Control Period
# [6] = 0.1-0.2 mg/kg i/v, Control Period
# [7] = 20 mg/kg i/v daily 10 days, beginning of experiment
# [8] = 20 mg/kg i/v daily 10 days, end of experiment
# Sequence of H2 -ceptors (P17124 whole entry): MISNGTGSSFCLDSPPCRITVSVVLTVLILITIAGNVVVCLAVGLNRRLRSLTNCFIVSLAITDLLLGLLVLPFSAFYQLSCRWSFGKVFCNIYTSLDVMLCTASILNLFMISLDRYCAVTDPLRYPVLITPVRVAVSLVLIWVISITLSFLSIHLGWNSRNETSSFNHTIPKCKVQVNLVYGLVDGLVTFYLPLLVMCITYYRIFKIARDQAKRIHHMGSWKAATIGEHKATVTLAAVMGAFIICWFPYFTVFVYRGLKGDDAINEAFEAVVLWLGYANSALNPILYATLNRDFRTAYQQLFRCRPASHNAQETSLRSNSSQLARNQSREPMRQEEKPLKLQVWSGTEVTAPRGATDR
# T1 sequence (P31389 whole entry): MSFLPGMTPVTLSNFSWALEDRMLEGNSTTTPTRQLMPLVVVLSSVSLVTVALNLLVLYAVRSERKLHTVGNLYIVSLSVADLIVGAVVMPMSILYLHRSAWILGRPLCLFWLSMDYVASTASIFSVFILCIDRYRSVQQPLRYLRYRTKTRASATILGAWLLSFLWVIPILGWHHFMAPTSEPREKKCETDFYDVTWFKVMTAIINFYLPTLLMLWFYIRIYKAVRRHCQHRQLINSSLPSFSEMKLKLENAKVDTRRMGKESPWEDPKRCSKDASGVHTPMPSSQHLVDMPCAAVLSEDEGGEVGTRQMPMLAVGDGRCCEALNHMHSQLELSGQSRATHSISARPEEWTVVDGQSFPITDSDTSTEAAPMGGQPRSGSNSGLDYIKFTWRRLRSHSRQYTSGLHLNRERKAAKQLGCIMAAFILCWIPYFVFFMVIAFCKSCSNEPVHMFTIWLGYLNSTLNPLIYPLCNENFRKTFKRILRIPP
# Sequence of H2 -receptors (P25102 whole entry): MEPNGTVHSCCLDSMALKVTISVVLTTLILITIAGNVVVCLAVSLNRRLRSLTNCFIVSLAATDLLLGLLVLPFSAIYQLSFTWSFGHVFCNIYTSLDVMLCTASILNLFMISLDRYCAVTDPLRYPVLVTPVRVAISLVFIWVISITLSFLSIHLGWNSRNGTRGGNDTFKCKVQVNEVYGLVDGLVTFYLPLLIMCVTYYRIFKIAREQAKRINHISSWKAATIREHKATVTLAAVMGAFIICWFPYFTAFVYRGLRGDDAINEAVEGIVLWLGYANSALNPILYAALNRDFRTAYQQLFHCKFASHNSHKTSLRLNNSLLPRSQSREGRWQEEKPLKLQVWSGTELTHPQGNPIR
smiles,measurement,setting,value
"NCCc1nnc(N)s1 [Thidazine, 2-amino-5-(2-aminoethyl)-1,3,4-thiadiazole]",Respiration amplitude,"Respiration; 1 mg/kg i/v, Control Period",10.0 ± 0.8 mm
same,Respiration rate per minute,"Respiration; 1 mg/kg i/v, Control Period",120 ± 10.0 per minute
same,Respiration amplitude,"Respiration; 1 mg/kg i/v, Test Period",14.0 ± 0.4 mm
same,Respiration rate per minute,"Respiration; 1 mg/kg i/v, Test Period",85.0 ± 6.0 per minute
same,Respiration amplitude,"Respiration; 2 mg/kg i/v, Control Period",110.0 ± 7.0 mm
same,Respiration rate per minute,"Respiration; 2 mg/kg i/v, Control Period",100.0 ± 8.0 per minute
same,Respiration amplitude,"Respiration; 2 mg/kg i/v, Test Period",140 ± 20.0 mm
same,Respiration rate per minute,"Respiration; 2 mg/kg i/v, Test Period",85.0 ± 10.0 per minute
same,Respiration amplitude,Respiration; [5],160.0 ± 6.2 mm
same,Respiration rate per minute,Respiration; [5],79.0 ± 2.0 per minute
same,Respiration amplitude,"Respiration; 0.1-0.2 mg/kg i/m, Test Period",160 ± 10.1 mm
same,Respiration rate per minute,"Respiration; 0.1-0.2 mg/kg i/m, Test Period",78.0 ± 2.3 per minute
same,Respiration amplitude,Respiration; [6],220 ± 0.3 mm
same,Respiration rate per minute,Respiration; [6],90.0 ± 0.2 per minute
same,Respiration amplitude,"Respiration; 0.1-0.2 mg/kg i/v, Test Period",180 ± 0.1 mm
same,Respiration rate per minute,"Respiration; 0.1-0.2 mg/kg i/v, Test Period",85.0 ± 0.4 per minute
same,Emax,H2 -receptors,15%
same,"% of difference (fluctuations) of total acidity, first and second tests",total acidity; 0.7 mg/kg hypodermic,15-42%
same,Average difference of total acidity,total acidity; 0.7 mg/kg hypodermic,31%
same,"% of difference (fluctuations) of total acidity, first and second tests",total acidity; 1.5mg/kg per os,0-22%
same,Average difference of total acidity,total acidity; 1.5mg/kg per os,7.5%
same,LD50,"[1]; ip, 280-350 g, i/p",360 mg/kg
same,LD50,"[1]; iv, 200-250 g, i/v",190 mg/kg
same,reduction of arterial pressure,"arterial pressure [2]; anesthetized cats, 0.1 mg/kg intravenous",30 mm of mercury
same,hypotensive reaction,"arterial pressure [2]; cats, doses below 0.1 mg/kg intravenous",No hypotensive reaction was observed
same,reduction of arterial pressure,arterial pressure [3],12 mm of mercury
same,action upon H2 -receptors compared with H1 -receptors,H1 - and H2 -receptors,the action of thidazine upon H2 -receptors is stronger than its action upon H1 -receptors
same,EC50,H1 -receptors,398 µM
same,Allergic Action (Arthus-Sakharov Phenomenon),male rabbits,Negative reaction
same,Irritant Action,Bulbar Conjunctiva,Negative reaction
same,Coagulability of Blood,Male guinea pigs; 20 mg/kg i/v daily 10 days,No changes
same,Differential Blood Count,Male guinea pigs; 20 mg/kg i/v daily 10 days,No significant changes
same,ECG at beginning and end of experiment,Male guinea pigs; 20 mg/kg i/v daily 10 days,No significant changes
same,Average weight in test group,"Male guinea pigs; 20 mg/kg i/v daily 10 days, Control Period (beginning)",220.0 ± 58 g
same,Average weight in test group,"Male guinea pigs; 20 mg/kg i/v daily 10 days, Test Period (end)",252.3 ± 50 g
same,"ESR, test group",Male guinea pigs; [7],2 mm
same,"Erythrocytes, test group",Male guinea pigs; [7],3.75 ± 0.1 mln.
same,"Hemoglobin, test group",Male guinea pigs; [7],11.8 ± 0.1%
same,"Leukocytes, test group",Male guinea pigs; [7],11360 ± 900 thous.
same,"ESR, test group",Male guinea pigs; [8],2 mm
same,"Erythrocytes, test group",Male guinea pigs; [8],3.93 ± 0.1 mln.
same,"Hemoglobin, test group",Male guinea pigs; [8],12.4 ± 0.3%
same,"Leukocytes, test group",Male guinea pigs; [8],9500 ± 835 thous.
same,effect upon growth and development and blood composition,"Male guinea pigs; two animal species, 1/10 LD50",no significant effect
same,pathological changes in the vital organs,"Male guinea pigs; two animal species, 1/10 LD50",causes no pathological changes in the vital organs
same,increase of output of hydrochloric acid after ligation of the pylorus,gastric juice,increased the output of hydrochloric acid more than threefold
same,HCl Output,gastric juice; control group 0.12 mEq per animal,0.41 mEq
same,pH of the gastric juice,gastric juice; control group 2.2,1.6
same,production of maximum level of hydrochloric acid secretion in the stomach,H2 -ceptors; animal (dog),can produce a maximum level of hydrochloric acid secretion in the stomach of a dog
same,"effect upon arterial pressure, heart rate and general behavior","H2 -ceptors; dog, 3 mg/kg (maximum secretion dose)",no significant effect
same,maximum dose,"H2 -ceptors; dogs, intramuscular",3.0 mg/kg
same,maximum hourly output of hydrochloric acid,"H2 -ceptors; dogs, intramuscular",24 mEq per hour
same,maximum hourly output of pepsin,"H2 -ceptors; dogs, intramuscular",110 mg per hour
same,minimum active dose,"H2 -ceptors; dogs, intramuscular",0.05 mg/kg
same,dose for maximum secretion test,gastric secretion; hypodermic or intramuscular,1.6 mg/kg
same,dose for submaximum secretion test,gastric secretion; hypodermic or intramuscular,0.8 mg/kg
same,secretory activity compared with histamine and pentagastrin,"gastric secretion; patients, adequate doses",close to histamine and pentagastrin
same,effectiveness per os compared with parenteral,"gastric secretion; patients, tablets or solutions",as effectively as parenterally
same,dose for maximum secretion test,gastric secretion; per os,2.0 mg/kg
same,dose for submaximum secretion test,gastric secretion; per os,1.5 mg/kg
same,Free Acidity,[4],77.0+20 units
same,HCl Output,[4],12.2 ± 0.7 milliequivalents per hour
same,Peak HCl Output,[4],8.9+0.3 milliequivalents
same,Total Acidity,[4],90.3+22 units
same,"Behavior, food reflexes",male dogs; 200 mg per os daily 10 days,No changes
same,Bilirubin content,male dogs; 5th day,0.15 mg%
same,Glutamic-alanine transaminase content,male dogs; 5th day,30 units
same,Bilirubin content,male dogs; 10th day,0.15 mg%
same,Glutamic-alanine transaminase content,male dogs; 10th day,32 units
same,Bilirubin content,male dogs; at beginning,0.16 mg%
same,Glutamic-alanine transaminase content,male dogs; beginning,30 units
same,Histological Examination of Internal Organs,"male dogs; dog, in vivo",No microscopic changes
same,"Urinalysis: volume, specific weight, protein, microscopy of urinary sediment","male dogs; dog, in vivo",No significant changes
same,LD50,"Acute toxicity, rats",1 mg/kg
